{"source": "ChEMBL document CHEMBL1124763", "about": "“Nucleoside conjugates. 11. Synthesis and antitumor activity of 1-beta-D-arabinofuranosylcytosine and cytidine conjugates of thioether lipids” (1990)", "key": {"[1]": {"system": "Mus musculus", "test": "Increase of life span was determined against Ip implanted L1210 / ara-C (II) lymphoid leukemia in mice at a dose of 300 mg/kg per day", "format": "functional", "details": "route intraperitoneal"}, "[2]": {"system": "Mus musculus", "test": "Increase of life span was determined against Ip implanted L1210 / 0 lymphoid leukemia in mice at a dose of 100 mg/kg per day after treatment 1,8,15,22", "format": "functional", "details": "L1210/0, ip, route intraperitoneal"}, "[3]": {"system": "Mus musculus", "test": "Increase of life span was determined against Ip implanted L1210 / 0 lymphoid leukemia in mice at a dose of 200 mg/kg per day after treatment 1", "format": "functional", "details": "L1210/0, ip, route intraperitoneal"}, "[4]": {"system": "Mus musculus", "test": "Increase of life span was determined against Ip implanted L1210 / 0 lymphoid leukemia in mice at a dose of 200 mg/kg per day after treatment 1,8,15,22", "format": "functional", "details": "L1210/0, ip, route intraperitoneal"}, "[5]": {"system": "Mus musculus", "test": "Increase of life span was determined against Ip implanted L1210 / 0 lymphoid leukemia in mice at a dose of 200 mg/kg per day after treatment 5", "format": "functional", "details": "L1210/0, ip, route intraperitoneal"}, "[6]": {"system": "Mus musculus", "test": "Range of survival days for antitumor activity against Ip implanted L1210 / 0 lymphoid leukemia in mice at a dose of 60 mg/kg per day after treatment 1-5;range is 27->45", "format": "functional", "details": "route intraperitoneal"}, "[7]": {"system": "Mus musculus", "test": "Increase of life span was determined against Ip implanted L1210 / 0 lymphoid leukemia in mice at a dose of 300 mg/kg per day after treatment 1,15", "format": "functional", "details": "L1210/0, ip, route intraperitoneal"}, "[8]": {"system": "Mus musculus", "test": "Increase of life span was determined against Ip implanted L1210 / 0 lymphoid leukemia in mice at a dose of 400 mg/kg per day", "format": "functional", "details": "L1210/0, ip, route intraperitoneal"}, "[9]": {"system": "Mus musculus", "test": "Range of survival days for antitumor activity against Ip implanted L1210 / ara-C (I) lymphoid leukemia in mice at a dose of 133 mg/kg per day", "format": "functional", "details": "route intraperitoneal"}, "[10]": {"system": "Mus musculus", "test": "Range of survival days for antitumor activity against Ip implanted L1210 / ara-C (II) lymphoid leukemia in mice at a dose of 300 mg/kg per day", "format": "functional", "details": "route intraperitoneal"}, "[11]": {"system": "Mus musculus", "test": "Range of survival days for antitumor activity against Ip implanted L1210 / ara-C(I) lymphoid leukemia in mice at a dose of 80 mg/kg per day", "format": "functional", "details": "route intraperitoneal"}, "[12]": {"system": "Mus musculus", "test": "Increase of life span was determined against Ip implanted L1210 / 0 lymphoid leukemia in mice at a dose of 400 mg/kg per day after treatment 1", "format": "functional", "details": "L1210/0, ip, route intraperitoneal"}, "[13]": {"system": "Mus musculus", "test": "Increase of life span was determined against Ip implanted L1210 / 0 lymphoid leukemia in mice at a dose of 400 mg/kg per day after treatment 2", "format": "functional", "details": "L1210/0, ip, route intraperitoneal"}, "[14]": {"system": "Mus musculus", "test": "Increase of life span was determined against Ip implanted L1210 / 0 lymphoid leukemia in mice at a dose of 400 mg/kg per day after treatment 5", "format": "functional", "details": "L1210/0, ip, route intraperitoneal"}, "[15]": {"system": "Mus musculus", "test": "Increase of life span was determined against Ip implanted L1210 / 0 lymphoid leukemia in mice at a dose of 400 mg/kg per day after treatment -1", "format": "functional", "details": "L1210/0, ip, route intraperitoneal"}, "[16]": {"system": "Mus musculus", "test": "Increase of life span was determined against Ip implanted L1210 / ara-C (I) lymphoid leukemia in mice at a dose of 133 mg/kg per day", "format": "functional", "details": "route intraperitoneal"}, "[17]": {"system": "Mus musculus", "test": "Increase of life span was determined against Ip implanted L1210 / ara-C (I) lymphoid leukemia in mice at a dose of 400 mg/kg per day", "format": "functional", "details": "route intraperitoneal"}, "[18]": {"system": "Mus musculus", "test": "Range of survival days for antitumor activity against Ip implanted L1210 / 0 lymphoid leukemia in mice at a dose of 200 mg/kg per day after treatment 1,15;range is 22-32", "format": "functional", "details": "route intraperitoneal"}, "[19]": {"system": "Mus musculus", "test": "Range of survival days for antitumor activity against Ip implanted L1210 / 0 lymphoid leukemia in mice at a dose of 200 mg/kg per day after treatment 1,8,15,22;range is 14->45", "format": "functional", "details": "route intraperitoneal"}, "[20]": {"system": "Mus musculus", "test": "Range of survival days for antitumor activity against Ip implanted L1210 / 0 lymphoid leukemia in mice at a dose of 200 mg/kg per day after treatment 5;range is 15-16", "format": "functional", "details": "route intraperitoneal"}, "[21]": {"system": "Mus musculus", "test": "Range of survival days for antitumor activity against Ip implanted L1210 / 0 lymphoid leukemia in mice at a dose of 300 mg/kg per day after treatment 1,15;range is 21->45", "format": "functional", "details": "route intraperitoneal"}, "[22]": {"system": "Mus musculus", "test": "Range of survival days for antitumor activity against Ip implanted L1210 / 0 lymphoid leukemia in mice at a dose of 300 mg/kg per day after treatment 1;range is 18->45", "format": "functional", "details": "route intraperitoneal"}, "[23]": {"system": "Mus musculus", "test": "Range of survival days for antitumor activity against Ip implanted L1210 / 0 lymphoid leukemia in mice at a dose of 400 mg/kg per day after treatment -1;range is 12->45", "format": "functional", "details": "route intraperitoneal"}, "[24]": {"system": "Mus musculus", "test": "Range of survival days for antitumor activity against Ip implanted L1210 / 0 lymphoid leukemia in mice at a dose of 100 mg/kg per day after treatment 1,8,15,22;range is 16-32", "format": "functional", "details": "route intraperitoneal"}, "[25]": {"system": "Mus musculus", "test": "Range of survival days for antitumor activity against Ip implanted L1210 / 0 lymphoid leukemia in mice at a dose of 400 mg/kg per day after treatment 5;range is 12-16", "format": "functional", "details": "route intraperitoneal"}, "[26]": {"system": "Mus musculus", "test": "Survival time treated/survival time tested (T/C) for antitumor activity against Ip implanted L1210 / ara-C (II) lymphoid leukemia in mice at a dose of 300 mg/kg per day", "format": "functional", "details": "route intraperitoneal"}, "[27]": {"system": "Mus musculus", "test": "Median survival time for antitumor activity against Ip implanted L1210 / ara-C (I) lymphoid leukemia in mice at a dose of 80 mg/kg per day", "details": "route intraperitoneal"}, "[28]": {"system": "Mus musculus", "test": "Median survival time for antitumor activity against Ip implanted L1210 / ara-C (I) lymphoid leukemia in mice at a dose of 400 mg/kg per day", "details": "route intraperitoneal"}, "[29]": {"system": "Mus musculus", "test": "Median survival time for antitumor activity against Ip implanted L1210 / 0 lymphoid leukemia in mice at a dose of 300 mg/kg per day after treatment 1,15", "details": "route intraperitoneal"}, "[30]": {"system": "Mus musculus", "test": "Survival time treated for antitumor activity against Ip implanted L1210 / 0 lymphoid leukemia in mice at a dose of 400 mg/kg per day after treatment -1;21.5/7", "details": "route intraperitoneal"}, "[31]": {"system": "Mus musculus", "test": "Survival time treated for antitumor activity against Ip implanted L1210 / 0 lymphoid leukemia in mice at a dose of 200 mg/kg per day after treatment 1,15;27.5/7", "details": "route intraperitoneal"}, "[32]": {"system": "Mus musculus", "test": "Survival time of treated mice for antitumor activity against Ip implanted L1210 / 0 lymphoid leukemia in mice at a dose of 400 mg/kg per day after treatment 1;29.5/7", "details": "route intraperitoneal"}, "[33]": {"system": "Mus musculus", "test": "Survival time of treated mice for antitumor activity against Ip implanted L1210 / 0 lymphoid leukemia in mice at a dose of 400 mg/kg per day after treatment 2;19.5/7", "details": "route intraperitoneal"}, "[34]": {"system": "Mus musculus", "test": "Survival time of treated mice for antitumor activity against Ip implanted L1210 / 0 lymphoid leukemia in mice at a dose of 400 mg/kg per day after treatment 5;14.5/7", "details": "route intraperitoneal"}, "[35]": {"system": "Mus musculus", "test": "Range of survival days for antitumor activity against Ip implanted L1210 / 0 lymphoid leukemia in mice at a dose of 400 mg/kg per day after treatment 0;range is 14->45", "details": "route intraperitoneal"}}, "data": [{"smiles": "CCCCCCCCCCCCCCCCCCSCC(COP(=O)(O)OP(=O)(O)OC[C@H]1O[C@@H](n2ccc(N)nc2=O)[C@@H](O)[C@@H]1O)OC(=O)CCCCCCCCCCCCCCC", "note": "(mixture of isomers)", "values": [{"measurement": "ILS at 300 mg/kg/day", "setting": "[1]", "value": 0, "unit": "%"}, {"measurement": "ILS at 100 mg/kg/day", "setting": "[2]", "value": 243, "unit": "%"}, {"measurement": "ILS at 200 mg/kg/day", "setting": "[3]", "value": 357, "unit": "%"}, {"measurement": "ILS at 200 mg/kg/day", "setting": "[4]", "value": 250, "unit": "%"}, {"measurement": "ILS at 200 mg/kg/day", "setting": "[5]", "value": 114, "unit": "%"}, {"measurement": "Range of survival days", "setting": "[6]", "value": ">27"}, {"measurement": "ILS at 300 mg/kg/day", "setting": "[7]", "value": 243, "unit": "%"}, {"measurement": "ILS at 400 mg/kg/day", "setting": "[8]", "value": "> 507", "unit": "%"}, {"measurement": "Range", "setting": "[9]", "value": ">45"}, {"measurement": "Range", "setting": "[10]", "value": 8}, {"measurement": "Range", "setting": "[11]", "value": ">25"}, {"measurement": "ILS at 400 mg/kg/day", "setting": "[12]", "value": 321, "unit": "%"}, {"measurement": "ILS at 400 mg/kg/day", "setting": "[13]", "value": 179, "unit": "%"}, {"measurement": "ILS at 400 mg/kg/day", "setting": "[14]", "value": 107, "unit": "%"}, {"measurement": "ILS at 400 mg/kg/day", "setting": "[15]", "value": 207, "unit": "%"}, {"measurement": "ILS at 133 mg/kg/day", "setting": "[16]", "value": "> 350", "unit": "%"}, {"measurement": "ILS at 400 mg/kg/day", "setting": "[17]", "value": "> 350", "unit": "%"}, {"measurement": "Range of survival days", "setting": "[18]", "value": 22}, {"measurement": "Range of survival days", "setting": "[19]", "value": ">14"}, {"measurement": "Range of survival days", "setting": "[20]", "value": 15}, {"measurement": "Range of survival days", "setting": "[21]", "value": ">21"}, {"measurement": "Range of survival days", "setting": "[22]", "value": ">18"}, {"measurement": "Range of survival days", "setting": "[23]", "value": ">12"}, {"measurement": "Range of survival days", "setting": "[24]", "value": 16}, {"measurement": "Range of survival days", "setting": "[25]", "value": 12}, {"measurement": "median survival time", "setting": "[26]", "value": 9, "unit": "days"}, {"measurement": "median survival time", "setting": "[27]", "value": "> 45", "unit": "days"}, {"measurement": "median survival time", "setting": "[28]", "value": "> 45", "unit": "days"}, {"measurement": "median survival time", "setting": "[29]", "value": 24.5, "unit": "days"}, {"measurement": "survival time", "setting": "[30]", "value": 21.5, "unit": "days"}, {"measurement": "survival time", "setting": "[31]", "value": 27.5, "unit": "days"}, {"measurement": "survival time", "setting": "[32]", "value": 29.5, "unit": "days"}, {"measurement": "survival time", "setting": "[33]", "value": 19.5, "unit": "days"}, {"measurement": "survival time", "setting": "[34]", "value": 14.5, "unit": "days"}, {"measurement": "Range of survival days", "setting": "[35]", "value": ">14"}]}]}
